From the supplement of paper PMC10307832

What was measured:
Experiment in all cases: relative viability (nuclei count vs DMSO), 5 days (fraction); higher = more cells survive
RU-SKI 43 + Crizotinib = compound: CC[C@@H](C)CNCC(=O)N1CCC2=C([C@@H]1COC3=CC=CC(=C3)C)C=CS2 [RU-SKI 43] + C[C@@H](Oc1cc(-c2cnn(C3CCNCC3)c2)cnc1N)c1c(Cl)ccc(F)c1Cl [Crizotinib] (partner 1 µM)
Procedure, shortened: (§1)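 After 5 days of treatment, lung cancer cells in 1536-well plates were fixed and stained in a single step (final 0.05% Triton X-100, 1% formaldehyde, 1 ug/ml Hoechst) and their nuclei counted on 4× images. Treatment had been applied by pin tool the day after seeding as one drug alone or as a fixed anchor-drug dose with five library-drug doses (not always all listed) in √10 steps. Relative viability is the nuclei count of treated wells divided by that of vehicle wells, and values are medians of duplicate plates.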

Irinotecan + Lapatinib = compound: CCc1c2c(nc3ccc(OC(=O)N4CCC(N5CCCCC5)CC4)cc13)-c1cc3c(c(=O)n1C2)COC(=O)[C@]3(O)CC [Irinotecan] + CS(=O)(=O)CCNCc1ccc(-c2ccc3ncnc(Nc4ccc(OCc5cccc(F)c5)c(Cl)c4)c3c2)o1 [Lapatinib] (partner 2 µM)
Procedure, shortened: as §1

RU-SKI 43 + Luminespib = compound: CC[C@@H](C)CNCC(=O)N1CCC2=C([C@@H]1COC3=CC=CC(=C3)C)C=CS2 [RU-SKI 43] + CCNC(=O)c1noc(-c2cc(C(C)C)c(O)cc2O)c1-c1ccc(CN2CCOCC2)cc1 [Luminespib] (partner 0.01 µM)
Procedure, shortened: as §1

RU-SKI 43 + AZD7762 = compound: CC[C@@H](C)CNCC(=O)N1CCC2=C([C@@H]1COC3=CC=CC(=C3)C)C=CS2 [RU-SKI 43] + NC(=O)Nc1cc(-c2cccc(F)c2)sc1C(=O)N[C@H]1CCCNC1 [AZD7762] (partner 0.2 µM)
Procedure, shortened: as §1

Cell Line	relative viability (RU-SKI 43 + Crizotinib; first compound 0.1 µM)	relative viability (RU-SKI 43 + Crizotinib; first compound 0.3162 µM)	relative viability (RU-SKI 43 + Crizotinib; first compound 1 µM)	relative viability (RU-SKI 43 + Crizotinib; first compound 3.162 µM)	relative viability (RU-SKI 43 + Crizotinib; first compound 10 µM)	relative viability (Irinotecan + Lapatinib; first compound 0.6325 µM)	relative viability (Irinotecan + Lapatinib; first compound 2 µM)	relative viability (Irinotecan + Lapatinib; first compound 6.325 µM)	relative viability (Irinotecan + Lapatinib; first compound 20 µM)	relative viability (RU-SKI 43 + Luminespib; first compound 0.1 µM)	relative viability (RU-SKI 43 + Luminespib; first compound 0.3162 µM)	relative viability (RU-SKI 43 + Luminespib; first compound 1 µM)	relative viability (RU-SKI 43 + Luminespib; first compound 3.162 µM)	relative viability (RU-SKI 43 + Luminespib; first compound 10 µM)	relative viability (RU-SKI 43 + AZD7762; first compound 0.1 µM)	relative viability (RU-SKI 43 + AZD7762; first compound 0.3162 µM)	relative viability (RU-SKI 43 + AZD7762; first compound 1 µM)	relative viability (RU-SKI 43 + AZD7762; first compound 3.162 µM)	relative viability (RU-SKI 43 + AZD7762; first compound 10 µM)
NCI-H1299	0.947	1.12	0.995	1.01	0.957	0.721	0.693	0.399	0.203	–	–	–	–	–	–	–	–	–	–
NCI-H1650	0.968	0.916	0.971	0.991	0.67	0.386	0.51	0.401	0.152	0.185	0.191	0.226	0.205	0.206	–	–	–	–	–
HCC-78	0.334	0.305	0.35	0.353	0.302	0.551	0.543	0.206	0.218	–	–	–	–	–	0.716	0.638	0.85	0.6	0.695
NCI-H520	0.858	0.874	1.09	0.706	0.616	0.604	0.664	0.28	0.2	0.191	0.18	0.257	0.209	0.216	–	–	–	–	–
NCI-H1648	–	–	–	–	–	–	–	–	–	–	–	–	–	–	0.502	0.626	0.656	0.694	0.628
NCI-H2023	0.623	0.685	0.602	0.58	0.428	0.484	0.408	0.129	0.045	0.919	1	0.887	0.856	0.876	–	–	–	–	–
COR-L23	0.752	0.598	0.736	0.667	0.492	0.383	0.378	0.177	0.121	0.547	0.573	0.93	0.869	0.614	–	–	–	–	–
NCI-H1703	–	0.734	0.61	0.594	0.381	0.953	1.32	0.39	0.158	–	–	–	–	–	0.177	0.137	0.134	0.11	0.12
NCI-H1563	0.789	0.773	0.825	0.836	0.734	0.674	1.05	0.954	0.441	0.51	0.502	0.51	0.529	0.495	–	–	–	–	–
NCI-H2228	0.498	0.416	0.448	0.579	0.306	0.798	0.772	0.461	0.353	0.178	0.15	0.177	0.149	0.199	–	–	–	–	–
LCLC-103H	1.08	1.12	1.08	1.09	0.926	–	–	–	–	0.934	1.16	1.1	1.1	0.971	0.832	0.804	0.788	0.821	0.763
NCI-H1623	–	–	–	–	–	–	–	–	–	0.452	0.478	0.468	0.577	0.447	–	–	–	–	–
SK-LU-1	0.799	1.02	0.969	0.971	0.898	0.46	0.503	0.321	0.312	0.225	0.215	0.202	0.227	0.215	–	–	–	–	–
Calu-6	0.781	0.871	0.936	0.726	0.594	0.599	0.514	0.226	0.125	–	–	–	–	–	–	–	–	–	–
NCI-H441	0.662	0.655	0.637	0.686	0.641	–	–	–	–	0.285	0.324	0.436	0.316	0.375	0.795	1.55	1.23	1.22	1.17
ChaGo-K-1	1.15	1.27	1.26	1.17	0.951	–	–	–	–	0.661	0.566	0.723	0.645	0.516	0.877	1.04	0.836	0.921	0.801
SW 1573	1	0.767	0.799	0.768	0.723	0.965	1.11	0.326	0.195	0.223	0.203	0.246	0.154	0.308	–	–	–	–	–
IA-LM	0.759	0.797	0.663	0.736	0.64	0.426	0.26	0.134	0.0941	–	–	–	–	–	–	–	–	–	–
NCI-H522	–	–	–	–	–	–	–	–	–	1.28	1.14	1.14	1.05	1.17	0.918	0.984	1.04	0.859	0.853
COR-L 105	0.682	0.697	0.858	0.712	0.438	0.358	0.431	0.452	0.272	0.871	0.837	0.643	0.772	0.686	–	–	–	–	–
SW 900	–	–	–	–	–	–	–	–	–	0.196	0.188	0.195	0.169	0.151	0.523	0.612	0.571	0.588	0.58
NCI-H1793	–	–	–	–	–	–	0.547	0.253	0.235	0.167	0.154	0.205	0.154	0.183	0.56	0.719	0.641	0.447	0.29
A549	0.775	1.12	0.847	0.71	0.52	0.723	0.529	0.112	0.0497	–	–	–	–	–	–	–	–	–	–
NCI-H2009	1.07	1.06	1.06	1.03	0.905	0.308	0.445	0.294	0.12	0.981	1.12	0.984	1.02	1.03	–	–	–	–	–
NCI-H1395	–	–	–	–	–	–	0.732	0.531	0.361	0.733	0.899	0.862	0.649	0.635	0.382	0.394	0.387	0.393	0.394
HCC-366	0.454	0.392	0.548	0.486	0.27	0.418	0.126	0.0457	0.0686	–	–	–	–	–	0.268	0.252	0.321	0.34	0.216
